{"source": "ChEMBL document CHEMBL5512613", "about": "“Design and synthesis of novel 3-amino-5-phenylpyrazole derivatives as tubulin polymerization inhibitors targeting the colchicine-binding site” (Eur J Med Chem, 2024)", "key": {"MCF7 [1]": {"tested_on": "MCF7", "assay": "Induction of cell cycle arrest in human MCF7 cells assessed as proportion of cells at S phase at 6.25 nM incubated for 24 hrs by PI staining based flow cytometry (reference value: 21.1%)", "format": "functional"}, "Tubulin (Homo sapiens)": {"biological_target": "Tubulin (Homo sapiens) (UniProt P68371+Q9H4B7+P0DPH7+P68366+Q13509+Q71U36+P04350+Q3ZCM7+P07437+P68363+Q9BQE3+Q6PEY2+Q13885+Q9BVA1+Q9BUF5)", "assay": "Displacement of [3H]colchicine from tubulin (unknown origin) at 5 uM incubated for 2 hrs by scinitillation proximity assay", "format": "protein-complex assay"}, "MCF7 [2]": {"tested_on": "MCF7", "assay": "Induction of apoptosis in human MCF7 cells assessed as increase in Bim protein expression at 6.25 to 50 nM incubated for 24 hrs by western blot analysis", "format": "functional, cell-based", "settings": "dose 6.25-50 nM"}, "MCF7 [3]": {"tested_on": "MCF7", "assay": "Induction of cell cycle arrest in human MCF7 cells assessed as proportion of cells at G1 phase at 25 nM incubated for 12 hrs by PI staining based flow cytometry (reference value: 64.5%)", "format": "functional"}, "MCF7 [4]": {"tested_on": "MCF7", "assay": "Induction of apoptosis in human MCF7 cells assessed as increase in cleaved PARP protein expression at 6.25 to 50 nM incubated for 24 hrs by western blot analysis", "format": "functional, cell-based", "settings": "dose 6.25-50 nM"}, "MCF7 [5]": {"tested_on": "MCF7", "assay": "Inhibition of colony formation in human MCF7 cells at 5 to 20 nM incubated for 2 weeks in 5% CO2 at 37 degC by crystal violet staining based analysis", "format": "functional, cell-based", "settings": "dose 5-20 nM"}, "A549": {"tested_on": "A549", "assay": "Inhibition of cell migration in human A549 cells at 2.5 to 10 nM incubated for 12 to 48 hrs by fluorescent inverted microscopy", "format": "functional, cell-based", "settings": "dose 2.5-10 nM, time 12-48 hrs"}, "HUVEC": {"tested_on": "HUVEC", "assay": "Anti-vascular activity in human HUVEC cells assessed as reduction in number of loops formed at 6.25 to 50 nM incubated for 6 hrs by Matrigel based inverted fluorescence microscopy", "format": "functional, cell-based", "settings": "dose 6.25-50 nM"}, "MCF7 [6]": {"tested_on": "MCF7", "assay": "Induction of cell cycle arrest in human MCF7 cells assessed as proportion of cells at G2 phase at 25 nM incubated for 12 hrs by PI staining based flow cytometry (reference value: 14.4%)", "format": "functional"}, "Tubulin": {"biological_target": "Tubulin", "assay": "Inhibition of tubulin polymerization (unknown origin) measured for 60 mins by fluorescence based analysis", "format": "protein-complex assay, Homo sapiens"}, "MCF7 [7]": {"tested_on": "MCF7", "assay": "Induction of cell cycle arrest in human MCF7 cells assessed as increase in Cdc25c protein expression at 6.25 to 50 nM incubated for 24 hrs by western blot analysis", "format": "functional, cell-based", "settings": "dose 6.25-50 nM"}, "MCF7 [8]": {"tested_on": "MCF7", "assay": "Induction of cell cycle arrest in human MCF7 cells assessed as proportion of cells at G2 phase at 6.25 nM incubated for 24 hrs by PI staining based flow cytometry (reference value: 14.4%)", "format": "functional"}, "[9]": {"assay": "Toxicity against BALB/c mouse xenografted with human MCF7 cells assessed as body weight changes at 5 to 20 mg/kg, ip administered every 3 days for 21 days", "format": "organism-based", "settings": "in vivo, 504 h, dose 5-20 mg/kg, time 21 day"}, "MCF7 [10]": {"tested_on": "MCF7", "assay": "Induction of cell cycle arrest in human MCF7 cells assessed as proportion of cells at G2 phase at 12.5 nM incubated for 24 hrs by PI staining based flow cytometry (reference value: 14.4%)", "format": "functional"}}, "note": "Activity calls are given as the source filed them. No cut-off for these calls is given here."}
{"smiles": "COc1cc(C(=O)n2nc(N)cc2-c2ccc(C)cc2)cc(OC)c1OC", "values": [{"measurement": "Activity", "setting": "MCF7 [1]", "result": 18.4, "unit": "%"}, {"measurement": "inhibition", "setting": "Tubulin (Homo sapiens)", "result": 91.4, "unit": "%"}, {"measurement": "Activity", "setting": "MCF7 [2]", "result": "Active"}, {"measurement": "Activity", "setting": "MCF7 [3]", "result": 14.3, "unit": "%"}, {"measurement": "Activity", "setting": "MCF7 [4]", "result": "Active"}, {"measurement": "inhibition", "setting": "MCF7 [5]", "result": "Active"}, {"measurement": "inhibition", "setting": "A549", "result": "Dose-Dependent Effect"}, {"measurement": "Activity", "setting": "HUVEC", "result": "Active"}, {"measurement": "Activity", "setting": "MCF7 [6]", "result": 62.8, "unit": "%"}, {"measurement": "IC50", "setting": "Tubulin", "result": 1870, "unit": "nM"}, {"measurement": "Activity", "setting": "MCF7 [7]", "result": "Active"}, {"measurement": "Activity", "setting": "MCF7 [8]", "result": 28.3, "unit": "%"}, {"measurement": "Activity", "setting": "[9]", "result": "Non-Toxic"}, {"measurement": "Activity", "setting": "MCF7 [10]", "result": 39.2, "unit": "%"}]}
